# Values quoted from earlier work, collected in US20020127259A1, “Rumen by-pass delivery system” (priority 1998, published 2002).
# Details: given by Seghers in 1990
row,Substance,relative rate of phospholipid hydration
1,Phosphatidylcholine,100%
2,phosphatidylethanolamine [P-ethanolamine],16%
3,phosphatidic acid,8.5%
4,phosphatidylinositol,44%
